How the values were obtained:
HGGX42 = H3.3 G34R paediatric high-grade glioma line; assay: growth inhibition relative to DMSO (0) and positive control (1) (fraction); higher = more growth inhibition
Procedure, shortened: (§1)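 pHGG cell lines and astrocyte controls were grown on Geltrex-coated 384-well plates and treated for 7 days with a two-drug dose matrix, run in two plate orientations. Single-agent values are the one-drug arms of the same matrix plates. CellTiter-Glo luminescence was normalised without log2 transformation to fractional activity between solvent (0) and positive control (1) wells. The data were used for response-surface synergy modelling.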

HGGX6 = H3.3 G34R paediatric high-grade glioma line; assay: as above
Procedure, shortened: as §1

O=C(NOC[C@H](O)CO)c1ccc(F)c(F)c1Nc1ccc(I)cc1F + CC1(C)OCCn2c1nc1c(N3CCOCC3)nc(-c3cnc(N)nc3)nc12 [GDC0084]
growth inhibition
Settings	compound 1 concentration 0.009766 µM	compound 1 concentration 0.01953 µM	compound 1 concentration 0.03906 µM	compound 1 concentration 0.07812 µM	compound 1 concentration 0.15625 µM	compound 1 concentration 0.3125 µM	compound 1 concentration 0.625 µM	compound 1 concentration 1.25 µM	compound 1 concentration 5 µM	compound 1 concentration 20 µM
HGGX6, compound 2 concentration 0.03906 µM	-0.0587	-0.133	-0.0423	-0.0209	0.0525	0.0544	0.136	0.172	0.433	0.608
HGGX6, compound 2 concentration 0.07812 µM	0.159	0.159	0.235	0.123	0.215	0.239	0.175	0.334	0.493	0.707
HGGX6, compound 2 concentration 0.15625 µM	0.0791	0.129	0.0602	0.134	0.0901	0.167	0.22	0.321	0.536	0.68
HGGX6, compound 2 concentration 0.3125 µM	0.217	0.19	0.195	0.14	0.172	0.319	0.322	0.391	0.572	0.713
HGGX6, compound 2 concentration 0.625 µM	0.371	0.37	0.329	0.373	0.258	0.373	0.432	0.457	0.633	0.748
HGGX6, compound 2 concentration 1.25 µM	0.572	0.523	0.53	0.483	0.467	0.501	0.53	0.544	0.679	0.799
HGGX6, compound 2 concentration 5 µM	0.709	0.727	0.714	0.72	0.705	0.725	0.719	0.747	0.798	0.86
HGGX6, compound 2 concentration 20 µM	0.867	0.859	0.851	0.861	0.86	0.852	0.866	0.859	0.887	0.947
HGGX42, compound 2 concentration 0.03906 µM	0.121	0.215	-0.0211	0.146	-0.0192	0.0136	0.0247	0.074	0.354	0.554
HGGX42, compound 2 concentration 0.07812 µM	0.188	0.255	0.106	0.265	0.148	0.0907	0.211	0.153	0.575	0.609
HGGX42, compound 2 concentration 0.15625 µM	0.307	0.29	0.478	0.322	0.224	0.377	0.32	0.341	0.477	0.686
HGGX42, compound 2 concentration 0.3125 µM	0.494	0.466	0.484	0.515	0.431	0.424	0.294	0.326	0.507	0.716
HGGX42, compound 2 concentration 0.625 µM	0.673	0.632	0.625	0.647	0.57	0.606	0.602	0.528	0.674	0.8
HGGX42, compound 2 concentration 1.25 µM	0.782	0.743	0.746	0.753	0.748	0.706	0.723	0.703	0.803	0.895
HGGX42, compound 2 concentration 5 µM	0.875	0.86	0.872	0.883	0.882	0.872	0.881	0.876	0.93	0.979
HGGX42, compound 2 concentration 20 µM	0.898	0.898	0.901	0.911	0.908	0.899	0.907	0.908	0.956	0.986

CC1(C)OCCn2c1nc1c(N3CCOCC3)nc(-c3cnc(N)nc3)nc12 [GDC0084] + O=C(NOC[C@H](O)CO)c1ccc(F)c(F)c1Nc1ccc(I)cc1F [PD0325901]
growth inhibition
Settings	compound 1 concentration 0.009766 µM	compound 1 concentration 0.01953 µM	compound 1 concentration 0.03906 µM	compound 1 concentration 0.07812 µM	compound 1 concentration 0.15625 µM	compound 1 concentration 0.3125 µM	compound 1 concentration 0.625 µM	compound 1 concentration 1.25 µM	compound 1 concentration 5 µM	compound 1 concentration 20 µM
HGGX6, compound 2 concentration 0.03906 µM	-0.0592	-0.118	-0.0557	0.0473	0.0152	0.16	0.251	0.451	0.708	0.857
HGGX6, compound 2 concentration 0.07812 µM	0.064	-0.018	-0.00542	0.0583	0.162	0.132	0.254	0.475	0.717	0.883
HGGX6, compound 2 concentration 0.15625 µM	0.0118	0.0255	-0.000602	0.014	0.0815	0.2	0.302	0.466	0.711	0.857
HGGX6, compound 2 concentration 0.3125 µM	0.0282	0.112	0.0905	0.102	0.124	0.205	0.31	0.505	0.707	0.865
HGGX6, compound 2 concentration 0.625 µM	0.155	0.263	0.16	0.217	0.212	0.336	0.371	0.511	0.733	0.849
HGGX6, compound 2 concentration 1.25 µM	0.226	0.235	0.284	0.245	0.295	0.368	0.424	0.564	0.776	0.841
HGGX6, compound 2 concentration 5 µM	0.429	0.43	0.452	0.47	0.569	0.626	0.645	0.728	0.796	0.901
HGGX6, compound 2 concentration 20 µM	0.595	0.612	0.628	0.661	0.667	0.729	0.762	0.814	0.871	0.94
HGGX42, compound 2 concentration 0.03906 µM	-0.12	-0.197	0.0384	0.0281	0.284	0.461	0.656	0.736	0.874	0.903
HGGX42, compound 2 concentration 0.07812 µM	-0.0889	-0.0669	-0.00719	0.153	0.248	0.404	0.631	0.729	0.855	0.919
HGGX42, compound 2 concentration 0.15625 µM	-0.145	-0.107	-0.0597	0.0866	0.181	0.411	0.625	0.714	0.835	0.915
HGGX42, compound 2 concentration 0.3125 µM	-0.136	0.0502	-0.0893	0.0398	0.184	0.318	0.582	0.644	0.788	0.89
HGGX42, compound 2 concentration 0.625 µM	-0.166	-0.0808	-0.0757	0.0763	0.176	0.471	0.532	0.677	0.822	0.896
HGGX42, compound 2 concentration 1.25 µM	-0.0698	-0.0338	-0.0377	0.08	0.227	0.394	0.576	0.727	0.866	0.908
HGGX42, compound 2 concentration 5 µM	0.307	0.337	0.354	0.431	0.481	0.564	0.688	0.774	0.907	0.95
HGGX42, compound 2 concentration 20 µM	0.486	0.554	0.507	0.615	0.653	0.772	0.853	0.913	0.975	0.985
